Assay results reported in publication PMC10056008 (Pharmaceuticals, 2023).
Where two headings read alike, the source gives them in different places.

What was measured:
[1] = Pharmacokinetics of dabigatran etexilate, dabigatran and dabigatran acylglucuronide in plasma after 150 mg dabigatran etexilate with or without simvastatin; format: in vivo, human; conditions: for AUClast with simvastatin as % of value when administered alone / Cmax with simvastatin as % of value when administered alone: co-administered with simvastatin vs alone; for increase of AUClast after simvastatin co-administration: compared to dabigatran administered alone
Method: An open-label, two-period, single sequence clinical study was conducted. After an overnight fast and drinking 200 mL of water one hour before drug administration, eligible subjects were administered with a capsule of dabigatran etexilate 150 mg ([…]®) on the first day of the study. Blood samples for pharmacokinetic and pharmacodynamic analyses were obtained using EDTA tubes and citrate tubes, respectively. […] Subjects remained at fasting stage until 4 h after the administration. […] To ensure compliance, subjects visited the study site for every drug administration. […] Blood samples were obtained at the same time point scheduled as the first day of the study. Adverse events were collected during the entire study period. This study was conducted in accordance with the Declaration of Helsinki, good clinical practice, and local regulation. The study was approved by the Institutional Review Board at Korea University Guro Hospital (2018GR0336, date of approval: 11 October 2018) and registered at ClinicalTrials.gov (NCT03728101). Separate plasma samples were kept frozen below -70 °C until analysis. Plasma concentrations of dabigatran etexilate, dabigatran, and dabigatran acylglucuronide were quantified using a high-performance liquid chromatography (Nanospace series SI-2, Shiseido Co., Ltd., Tokyo, Japan) coupled with tandem mass spectrometry (API4000, AB SCIEX LLC, Framingham, MA, USA) method. The method was validated in terms of selectivity, linearity, precision, accuracy, recovery, matrix effect, and stability prior to the analysis. In brief, 100 μL of plasma samples were deproteinized using 400 μL of acetonitrile and centrifuged at 13,000× g for 20 min. Dabigatran-d3 was used as an internal standard. The supernatants were evaporated and then dissolved in a 300 μL mobile phase consisting of acetonitrile and 10 mM ammonium formate (215:85, v/v). These samples were injected onto an Atlantis HILIC SilicaTM column (2.1 mm × 150 mm, 3 μm, Waters, Milford, MA, USA) at a flow rate of 0.3 mL/min. The mass spectrometer equipped with an electrospray ionization source was operated in a positive ion mode. Selected ion pairs of m/z 629.464→290.100 for dabigatran etexilate, m/z 472.300→289.100 for dabigatran, m/z 648.382→289.100 for dabigatran acylglucuronide were detected. […] Pharmacokinetic parameters of dabigatran etexilate, dabigatran, and dabigatran acylglucuronide were derived from noncompartmental analysis using Phoenix Winnonlin® version 8.3 (Certara, Princeton, NJ, USA). Observed values from individual time-concentration profiles were used for Cmax and Tmax. Area under the time-concentration curve (AUC) was calculated using linear-up log-down trapezoidal rule. The AUC from 0 h to infinity (AUCinf) was calculated as follows: AUCinf = AUC + Ct/ke, where Ct was the last plasma concentration and ke was the elimination rate constant. […] Mean residence time (MRT) was calculated as area under the moment curve from time of dosing to the last measurable concentration divided by AUClast. All statistical analyses were performed using SAS® version 9.4 (SAS Institute Inc., Cary, NC, USA). Descriptive statistics were used to summarize demographic, pharmacokinetic, and pharmacodynamic data. A linear mixed effects model was used to compare Cmax, AUClast, and AUCinf between two treatment periods.

thrombin generation = experiment: Thrombin generation assay (TGA) in plasma of dosed subjects; format: in vivo, human; conditions: mean (SD)
Method: An open-label, two-period, single sequence clinical study was conducted. After an overnight fast and drinking 200 mL of water one hour before drug administration, eligible subjects were administered with a capsule of dabigatran etexilate 150 mg ([…]®) on the first day of the study. Blood samples for pharmacokinetic and pharmacodynamic analyses were obtained using EDTA tubes and citrate tubes, respectively. […] Subjects remained at fasting stage until 4 h after the administration. […] To ensure compliance, subjects visited the study site for every drug administration. […] Blood samples were obtained at the same time point scheduled as the first day of the study. Adverse events were collected during the entire study period. This study was conducted in accordance with the Declaration of Helsinki, good clinical practice, and local regulation. […] TGA was performed using a Technothrombin® TGA kit (Technoclone, Vienna, Austria) on a fully automated, computer-controlled microplate reader (Flexstation 3; Molecular Devices, San Jose, CA, USA) with a 360 nm excitation wavelength and 460 nm emission wavelength. In brief, 30 μL of plasma samples were mixed with 25 μL of 400 μmol/L fluorogenic substrate ([…]; Bachem, Bubendorf, Switzerland). The assay was initiated by dispensing 10 μL of 5 pmol/L recombinant human tissue factor lipidated with synthetic phospholipids and 10 μL of 15 mmol/L CaCl2. TGA results are expressed as Cmax, AUC, Tmax, and lag time. For pharmacodynamic assessment, Phoenix Winnonlin® version 8.3 (Pharsight, Mountain View, CA, USA) was used to calculate AUEC with the linear trapezoidal method and Rmax was directly determined from individual profiles.

coagulation = experiment: Coagulation assay (aPTT, PT, dPT, TT, fibrinogen) in plasma of dosed subjects; format: in vivo, human; conditions: for Fibrinogen AUEC / Fibrinogen Rmax / PT (INR) AUEC / PT (INR) Rmax / PT (sec) AUEC / PT (sec) Rmax / TT AUEC / TT Rmax / aPTT AUEC / aPTT Rmax / dPT (1:256) AUEC / dPT (1:256) Rmax: mean (SD)
Method: An open-label, two-period, single sequence clinical study was conducted. After an overnight fast and drinking 200 mL of water one hour before drug administration, eligible subjects were administered with a capsule of dabigatran etexilate 150 mg ([…]®) on the first day of the study. Blood samples for pharmacokinetic and pharmacodynamic analyses were obtained using EDTA tubes and citrate tubes, respectively. […] Subjects remained at fasting stage until 4 h after the administration. […] To ensure compliance, subjects visited the study site for every drug administration. […] Blood samples were obtained at the same time point scheduled as the first day of the study. Adverse events were collected during the entire study period. This study was conducted in accordance with the Declaration of Helsinki, good clinical practice, and local regulation. The study was approved by the Institutional Review Board at Korea University Guro Hospital (2018GR0336, date of approval: 11 October 2018) and registered at ClinicalTrials.gov (NCT03728101). Anticoagulant assays of aPTT, PT, dPT, TT, and fibrinogen were measured using STA® Compact Max (Stago, Asnieres, France) according to the manufacturer's instructions. […] To measure aPTT, 50 μL of plasma sample was placed in a cuvette in the presence of STA®-PTT (50 μL) and 50 μL of 0.025 M CaCl2. For fibrinogen, 7.5 μL of plasma which was automatically diluted with Owren-Koller buffer was placed into a cuvette and then 50 μL of […] was added. For pharmacodynamic assessment, Phoenix Winnonlin® version 8.3 (Pharsight, Mountain View, CA, USA) was used to calculate AUEC with the linear trapezoidal method and Rmax was directly determined from individual profiles.

[2] = cited from earlier work
[3] = Adverse events, vital signs, clinical laboratory tests, electrocardiogram; format: in vivo, human; conditions: 12 healthy subjects; except one subject with mild pharyngitis, which resolved
Method: An open-label, two-period, single sequence clinical study was conducted. After an overnight fast and drinking 200 mL of water one hour before drug administration, eligible subjects were administered with a capsule of dabigatran etexilate 150 mg ([…]®) on the first day of the study. Blood samples for pharmacokinetic and pharmacodynamic analyses were obtained using EDTA tubes and citrate tubes, respectively. […] Subjects remained at fasting stage until 4 h after the administration. […] To ensure compliance, subjects visited the study site for every drug administration. […] Blood samples were obtained at the same time point scheduled as the first day of the study. Adverse events were collected during the entire study period. This study was conducted in accordance with the Declaration of Helsinki, good clinical practice, and local regulation.

[4] = 150 mg dabigatran etexilate alone, mean (SD)
[5] = co-administered with simvastatin 40 mg once daily, day 7, mean (SD)
[6] = human, oral, 150 mg dabigatran etexilate alone, plasma, mean (SD)
[7] = human, plasma, oral, 150 mg dabigatran etexilate alone, mean (SD)
[8] = human, plasma, oral, 150 mg dabigatran etexilate alone, mean (SD), read-out: Cmax
[9] = human, plasma, oral, 150 mg dabigatran etexilate alone, mean (SD), read-out: MRT

## Cn1c(CNc2ccc(C(=N)N)cc2)nc2cc(C(=O)N(CCC(=O)OC3O[C@H](C(=O)O)[C@@H](O)[C@H](O)[C@H]3O)c3ccccn3)ccc21 (stereo partly drawn) [Dabigatran acylglucuronide]
[1]; human, in vivo, 150 mg
  AUCinf: 1576.5 (1154.0) h∙ng/mL
  AUClast: 1480.1 (1090.5) h∙ng/mL
  CL/F: 176.8 (161.8) L/h
  Cmax: 266.8 (187.1) ng/mL
  MRT: 6.8 (0.9) h
  Tmax: 2 (1.5–4) h
  t1/2: 6.4 (1.9) h

## [H]/N=C(/N)c1ccc(NCc2nc3cc(C(=O)N(CCC(=O)O)c4ccccn4)ccc3n2C)cc1 [Dabigatran]
[1]; [4]
  CL/F: 362.3 (331.8) L/h
[1]; 150 mg dabigatran etexilate alone, median (min–max)
  Tmax: 2 (1–4) h
[1]; [5]
  CL/F: 275.8 (197.4) L/h
[1]
  AUClast with simvastatin as % of value when administered alone: 121%
  Cmax with simvastatin as % of value when administered alone: 124%
  increase of AUClast after simvastatin co-administration: 21%
[1]; [6]
  AUC(0-inf): 664 ng·h/mL
  AUC(0-t): 617 ng·h/mL
[1]; [7]
  half-life: 6.1 h
[1]; [8]
  Cmax: 87 ng/mL
[1]; [9]
  MRT: 7.1 h
Thrombin generation; dabigatran alone
  Thrombin Generation AUC AUEC: 84,994.8 (14,977.1) nM∙min∙h
  Thrombin Generation AUC Rmax: 2423.6 (734.9) nM∙min
  Thrombin Generation Lag time AUEC: 131.7 (20.8) min∙h
  Thrombin Generation Lag time Rmax: 7.8 (1.7) min
Thrombin generation; dabigatran with simvastatin
  Thrombin Generation AUC AUEC: 79,286.4 (10,676.3) nM∙min∙h
  Thrombin Generation AUC Rmax: 2231.7 (326.0) nM∙min
  Thrombin Generation Lag time AUEC: 128.5 (20.1) min∙h
  Thrombin Generation Lag time Rmax: 8.0 (1.5) min
coagulation; dabigatran alone
  Fibrinogen AUEC: 6249.8 (1133.1) h∙mg/dL
  Fibrinogen Rmax: 288.0 (55.9) mg/dL
  PT (INR) AUEC: 26.9 (1.4)
  PT (INR) Rmax: 1.3 (0.1)
  PT (sec) AUEC: 344.9 (14.3) s∙h
  PT (sec) Rmax: 16.6 (1.4) s
  TT AUEC: 1690.1 (535.9) s∙h
  TT Rmax: 169.2 (74.0) s
  aPTT AUEC: 1203.1 (153.1) s∙h
  aPTT Rmax: 69.5 (13.8) s
  dPT (1:256) AUEC: 1404.8 (184.7) s∙h
  dPT (1:256) Rmax: 87.5 (19.2) s
coagulation; dabigatran with simvastatin
  Fibrinogen AUEC: 6040.9 (758.3) h∙mg/dL
  Fibrinogen Rmax: 309.3 (96.0) mg/dL
  PT (INR) AUEC: 27.7 (1.2)
  PT (INR) Rmax: 1.4 (0.1)
  PT (sec) AUEC: 353.8 (12.3) s∙h
  PT (sec) Rmax: 17.2 (1.4) s
  TT AUEC: 1976.2 (643.8) s∙h
  TT Rmax: 180.7 (50.4) s
  aPTT AUEC: 1235.7 (131.7) s∙h
  aPTT Rmax: 71.7 (12.2) s
  dPT (1:256) AUEC: 1482.9 (144.9) s∙h
  dPT (1:256) Rmax: 92.5 (15.3) s
[2]; healthy volunteers
  influence of atorvastatin on pharmacokinetics or pharmacodynamics of dabigatran: No influence
[2]; intravenous dabigatran
  fraction excreted via urine: 85%

## CCCCCCOC(=O)NC(=N)c1ccc(NCc2nc3cc(C(=O)N(CCC(=O)OCC)c4ccccn4)ccc3n2C)cc1 [Dabigatran etexilate]
[1]; [4]
  CL/F: 12,208.4 (16,447.7) L/h
[1]; [5]
  CL/F: 5235.1 (2729.4) L/h
[1]
  AUClast with simvastatin as % of value when administered alone: 147%
  Cmax with simvastatin as % of value when administered alone: 138%
  increase of AUClast after simvastatin co-administration: 47%
[1]; [6]
  AUC(0-inf): 33.7 ng·h/mL
  AUC(0-t): 26.1 ng·h/mL
[1]; [7]
  half-life: 3.4 h
[1]; [8]
  Cmax: 24.5 ng/mL
[1]; [9]
  MRT: 1.9 h
[1]; human, plasma, oral, 150 mg dabigatran etexilate alone, median (min–max), read-out: Tmax
  Tmax: 1 h
coagulation; after administration of dabigatran etexilate
  time of highest mean value of aPTT, PT, dPT and TT: 2 to 4 h
[3]
  adverse events, vital signs, clinical laboratory tests, electrocardiogram: no adverse events or clinically significant changes
[2]
  absolute bioavailability: 7%
[2]; single dose
  increase in exposure in mild renal impairment patients vs healthy subjects: 1.5 times

## CCC(C)(C)C(=O)O[C@H]1C[C@@H](C)C=C2C=C[C@H](C)[C@H](CC[C@@H](O)C[C@@H](O)CC(=O)O)[C@H]21 [simvastatin acid]
[2]; human, in vivo
  Time to reach Cmax (Tmax): ~4.2 h
  elimination half-life: ~4.4 h
